Ki and IC50 data for 23 molecules are collected here from patent US7381824B2 (Agouron Pharmaceuticals, Inc., priority 2003, dated 2008).

Test [1] has as its target T1, human vascular endothelial growth factor receptor 2 (VEGF-R2) (Homo sapiens, UniProt P35968, DEL940-989/E990V).
T1 construct: VEGF-R2D50 contains residues 806-939 and 990-1171; made in house; host or cells: baculovirus/insect cell system
As to the kind of experiment: VEGF-R2 coupled spectrophotometric assay (FLVK, unphosphorylated VEGF-R2D50). Type of test: biochemical. Conditions: unphosphorylated VEGF-R2D50 (FLVK). The text has this:
This construct determines the ability of a test compound to inhibit tyrosine kinase activity. A construct (VEGF-R2D50) of the cytosolic domain of human vascular endothelial growth factor receptor 2 (VEGF-R2) lacking the 50 central residues of the 68 residues of the kinase insert domain was expressed in a baculovirus/insect cell system. Of the 1356 residues of full-length VEGF-R2, VEGF-R2D50 contains residues 806-939 and 990-1171, and also one point mutation (E990V) within the kinase insert domain relative to wild-type VEGF-R2. Autophosphorylation of the purified construct was performed by incubation of the enzyme at a concentration of […] in the presence of 3 mM ATP and 40 mM MgCl2 in 100 mM HEPES, pH 7.5, containing 5% glycerol and 5 mM DTT, at 4° C. for 2 h. […] See Parast et al., Biochemistry, 37, 16788-16801 (1998).
VEGF-R2 Assay: Coupled Spectrophotometric (FLVK-P) Assay
The production of ADP from ATP that accompanies phosphoryl transfer was coupled to oxidation of NADH using phosphoenolpyruvate (PEP) and a system having pyruvate kinase (PK) and lactic dehydrogenase (LDH). The oxidation of NADH was monitored by following the decrease of absorbance at 340 nm (e340=6.22 cm^−1 mM^−1) using a Beckman DU 650 spectrophotometer. Assay conditions for phosphorylated VEGF-R2D50 (indicated as FLVK-P in the tables below) were the following: 1 mM PEP; […] NADH; 50 units of LDH/mL; 20 units of PK/mL; 5 mM DTT; 5.1 mM poly(E4Y1); 1 mM ATP; and 25 mM MgCl2 in 200 mM HEPES, pH 7.5. Assay conditions for unphosphorylated VEGF-R2D50 (indicated as FLVK in the tables) were the following: 1 mM PEP; […] NADH; 50 units of LDH/mL; 20 units of PK/mL; 5 mM DTT; 20 mM poly(E4Y1); 3 mM ATP; and 60 mM MgCl2 and 2 mM MnCl2 in 200 mM HEPES, pH 7.5. Assays were initiated with 5 to 40 nM of enzyme. K1 values were determined by measuring enzyme activity in the presence of varying concentrations of test compounds. The percent inhibition at 50 nM (% inhibition @ 50 nM) was determined by linear least-squares regression analysis of absorbance as a function of time. The binding inhibitions were fitted to equation as described by Morrison. The data were analyzed using Enzyme Kinetic and Kaleidagraph software.

Test [2] has as its system human umbilical vein endothelial cells (HUVEC). Briefly: HUVEC+VEGF proliferation assay. Type of test: cell-based. Conditions: VEGF-stimulated HUVEC proliferation, MTT, 72 hours. The procedure: HUVEC+VEGF Proliferation Assay
This assay determines the ability of a test compound to inhibit the growth factor-stimulated proliferation of human umbilical vein endothelial cells (“HUVEC”). HUVEC cells (passage 3-4, Clonetics, Corp.) were thawed into EGM2 culture medium (Clonetics Corp) in T75 flasks. Fresh EGM2 medium was added to the flasks 24 hours later. Four or five days later, cells were exposed to another culture medium (F12K medium supplemented with 10% fetal bovine serum (FBS), […] endothelial cell growth supplement (ECGS), and 0.1 mg/mL heparin). Exponentially-growing HUVEC cells were used in experiments thereafter. Ten to twelve thousand HUVEC cells were plated in 96-well dishes in […] of rich, culture medium (described above). The cells were allowed to attach for 24 hours in this medium. The medium was then removed by aspiration and […] of starvation media (F12K+1% FBS) was added to each well. After 24 hours, […] of test agent dissolved in 1% DMSO in starvation medium or this vehicle alone was added into each treatment well; the final DMSO concentration was 0.1%. One hour later, […] of VEGF (30 ng/mL) in starvation media was added to all wells except those containing untreated controls; the final VEGF concentration was 6 ng/mL. Cellular proliferation was quantified 72 hours later by MTT dye reduction, at which time cells were exposed for 4 hours MTT (Promega Corp.). Dye reduction was stopped by addition of a stop solution (Promega Corp.) and absorbance at 595 nm was determined on a 96-well spectrophotometer plate reader.

Molecules are shown by their SMILES. A value given as a limit tells only on which side of the number the result lay.

T1 sequence (P35968 with tags, fused parts or gaps DEL940-989/E990V limits assumed): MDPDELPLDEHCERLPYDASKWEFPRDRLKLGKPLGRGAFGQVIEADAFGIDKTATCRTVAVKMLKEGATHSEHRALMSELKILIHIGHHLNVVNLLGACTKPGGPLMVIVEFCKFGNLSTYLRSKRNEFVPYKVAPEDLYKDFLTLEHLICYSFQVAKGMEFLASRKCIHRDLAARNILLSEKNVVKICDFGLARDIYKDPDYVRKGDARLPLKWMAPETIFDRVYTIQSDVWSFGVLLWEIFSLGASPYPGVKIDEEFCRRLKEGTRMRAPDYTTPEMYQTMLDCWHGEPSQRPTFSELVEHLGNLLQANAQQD

On to `CNC(=O)c1c(C)oc2cc(Oc3ccnc4cc(-c5ccco5)ccc34)ccc12` [Example 13, 6-{[7-(2-furyl)quinolin-4-yl]oxy}-N,2-dimethyl-1-benzofuran-3-carboxamide], for which the Ki in test [1] is < 1 nM. Also, in test [2] (Homo sapiens), the IC50 fell in the range of 1 to 10 nM.

In the case of `CNC(=O)c1c(C)sc2cc(Oc3ccnc4cc(-c5cccnc5)ccc34)ccc12` [Example 14, N2dimethyl-6-[(7-pyridin-3-ylquinolin-4-yl)oxy]-1-benzothiophene-3-carboxamide], the Ki in test [1] lay within 1 to 10 nM. Further, the IC50 in test [2] (Homo sapiens) was in the range of 1 to 10 nM.

The molecule `CNC(=O)c1c(C)oc2cc(Oc3ccnc4cc(Br)ccc34)ccc12` [Example 19, 6-[(7-bromoquinolin-4-yl)oxy]-N,2-dimethy-1-benzofuran-3-carboxamide] displayed a Ki in test [1] of 1 to 10 nM. In test [2] (Homo sapiens), the IC50 lay in the range of 1 to 10 nM.

`CNC(=O)c1c(C)oc2cc(Oc3ccnc4cc(OC)ccc34)ccc12` [Example 29, 6-[(7-methoxyquinoline-4-yl)oxy]-N,2-dimethyl-1-benzofuran-3-carboxamide]: the Ki in test [1] is < 1 nM. Further, the IC50 in test [2] (Homo sapiens) lay within 1 to 10 nM.

`CNC(=O)c1c(C)sc2cc(Oc3ccnc4cc(-c5ccccn5)ccc34)ccc12` [Example 31] registered a Ki in test [1] of 1 to 10 nM. Also, in test [2], the IC50 was < 1 nM.

Turning to `CNC(=O)c1c(C)oc2cc(Oc3ccnc4cc(OCCN5CCOCC5)ccc34)ccc12` [Example 36, N,2-dimethyl-6-{[7-(2-morpholin-4-ylethoxy)quinolin-4-yl]oxy)-1-benzofuran-3-carboxamide], the Ki in test [1] lay in the range of 1 to 10 nM. For the same molecule, the half-maximal inhibitory concentration (IC50) in test [2] (Homo sapiens) was < 1 nM.

Take `CNC(=O)c1c(C)oc2cc(Oc3ccnc4cc(OCCN(C)C)ccc34)ccc12` [Example 37, 6-({7-[2-(dimethylamino)ethoxy]quinolin-4-yl}oxy)-N,2-dimethyl-1-benzofuran-3-carboxamide]: the Ki in test [1] was in the range of 1 to 10 nM. For the same molecule, in test [2] (Homo sapiens), the IC50 was < 1 nM.

Consider `CNC(=O)c1c(C)oc2cc(Oc3ccnc4cc(OCCN5CCCCC5)ccc34)ccc12` [Example 38, N,2-dimethyl-6-{[7-(2-piperidin-1-ylethoxy)quinolin-4-yl]oxy}-1-benzofuran-3-carboxamide], for which the Ki in test [1] lay within 1 to 10 nM. Further, the IC50 in test [2] (Homo sapiens) was < 1 nM.

`CCCCNC(=O)c1c(C)oc2cc(Oc3ccnc4cc(OCCN5CCCC5)ccc34)ccc12` [Example 44, N-butyl-2-methyl-6-{[7-(2-pyrrolidin-1-ylethoxy)quinolin-4-yl]oxy}-1-benzofuran-3-carboxamide] showed a Ki in test [1] of 1 to 10 nM. Also, the IC50 in test [2] (Homo sapiens) was < 1 nM.

In turn, `CCCCNC(=O)c1c(C)oc2cc(Oc3ccnc4cc(OCCN5CCOCC5)ccc34)ccc12` [Example 45, N-butyl-2-methyl-6-{[7-(2-morpholin-4-ylethoxy)quinolin-4-yl]oxy}-1-benzofuran-3-carboxamide] came in with a Ki in test [1] of 1 to 10 nM. Besides, the IC50 in test [2] (Homo sapiens) fell in the range of 1 to 10 nM.

Consider `CCCCNC(=O)c1c(C)oc2cc(Oc3ccnc4cc(OCCN(C)C)ccc34)ccc12` [Example 46, N-butyl-6-({7-[2-(dimethylamino)ethoxy]quinolin-4-yl}oxy)-2-methyl-1-benzofuran-3-carboxamide], for which, in test [1], the Ki fell in the range of 1 to 10 nM. Also, the 50% inhibitory concentration (IC50) in test [2] (Homo sapiens) is < 1 nM.

In the case of `CCCCNC(=O)c1c(C)oc2cc(Oc3ccnc4cc(OCCN5CCCCC5)ccc34)ccc12` [Example 47, N-butyl-2-methyl-6-{[7-(2-piperidin-1-ylethoxy)quinolin-4-yl]oxy}-1-benzofuran-3-carboxamide], the Ki in test [1] fell in the range of 1 to 10 nM. Moreover, the IC50 in test [2] (Homo sapiens) was < 1 nM.

On to `COc1ccc2c(Oc3ccc4c(C(=O)NC5CC5)c(C)sc4c3)ccnc2c1` [Example 48, N-cyclopropyl-6-[(7-methoxyquinolin-4-yl)oxy]-2-methyl-1-benzothiophene-3-carboxamide], for which the Ki in test [1] was 1 to 10 nM. For the same molecule, the IC50 in test [2] (Homo sapiens) lay within 1 to 10 nM.

In test [1], `CCCNC(=O)c1c(C)sc2cc(Oc3ccnc4cc(OC)ccc34)ccc12` [Example 50, [(7-methoxyquinolin-4-yl)oxy]-2-methyl-N-propyl-1-benzothiophene-3-carboxamide] displayed a Ki of 1 to 10 nM. Further, the IC50 in test [2] (Homo sapiens) fell in the range of 1 to 10 nM.

Take `COc1ccc2c(Oc3ccc4c(C(=O)NCCCN(C)C)c(C)sc4c3)ccnc2c1` [Example 51, N-[3-(dimethylamino)propyl]-6-[(7-methoxyquinolin-4-yl)oxy]-2-methyl-1-benzothiophene-3-carboxamide]: the Ki in test [1] is > 10 nM. For the same molecule, the IC50 in test [2] (Homo sapiens) lay within 1 to 10 nM.

The molecule `COc1ccc2c(Oc3ccc4c(C(=O)NC5CCCCC5)c(C)sc4c3)ccnc2c1` [Example 52, N-cyclohexyl-6-[(7-methoxyquinolin-4-yl)oxy]-2-methyl-1-benzothiophene-3-carboxamide] showed an inhibition constant (Ki) in test [1] of 1 to 10 nM. Also, the IC50 in test [2] (Homo sapiens) lay in the range of 1 to 10 nM.

`COc1ccc2c(Oc3ccc4c(C(=O)NC5CCCC5)c(C)sc4c3)ccnc2c1` [Example 53, N-cyclopentyl-6-[(7-methoxyquinolin-4-yl)oxy]-2-methyl-1-benzothiophene-3-carboxamide] displayed a Ki in test [1] of 1 to 10 nM. In addition, in test [2] (Homo sapiens), the IC50 lay within 1 to 10 nM.

In the case of `COc1ccc2c(Oc3ccc4c(C(=O)NCc5ccccn5)c(C)oc4c3)ccnc2c1` [Example 66, 6-[(7-methoxyquinolin-4-yl)oxy]-2-methyl-N-(pyridin-2-ylmethyl)-1-benzofuran-3-carboxamide], the Ki in test [1] was > 10 nM. In addition, the IC50 in test [2] (Homo sapiens) is 1 to 10 nM.

In test [1], `COc1ccc2c(Oc3ccc4c(C(=O)NCCCO)c(C)oc4c3)ccnc2c1` [Example 67, N-(3-hydroxypropyl)-6-[(7-methoxyquinolin-4-yl)oxy]-2-methyl-1-benzofuran-3-carboxamide] had a Ki of 1 to 10 nM. Further, the IC50 in test [2] (Homo sapiens) fell in the range of 1 to 10 nM.

Take `Cc1oc2cc(Oc3ccnc4cc(OC(F)(F)F)ccc34)ccc2c1C(=O)NC1CC1` [Example 73, N-cyclopropyl-2-methyl-6-{[7-(trifluoromethoxy)quinolin-4-yl]oxy}-1-benzofuran-3-carboxamide]: the Ki in test [1] was in the range of 1 to 10 nM. In addition, in test [2] (Homo sapiens), the IC50 lay in the range of 1 to 10 nM.

`COc1ccc2c(Oc3ccc4c(C(=O)NC[C@H]5CCCO5)c(C)oc4c3)ccnc2c1` [Example 84, 6-[(7-methoxyquinolin-4-yl)oxy]-2-methyl-N-[(2R)tetrahydrofuran-2-ylmethyl]-1-benzofuran-3-carboxamide] registered a Ki in test [1] of 1 to 10 nM. In addition, the IC50 in test [2] (Homo sapiens) lay within 1 to 10 nM.

On to `CCOCCNC(=O)c1c(C)oc2cc(Oc3ccnc4cc(OC)ccc34)ccc12` [Example 86, 6-[(7-methoxyquinolin-4-yl)oxy]-2-methyl-N-[ethoxy-ethyl]-1-benzofuran-3-carboxamide], for which the Ki in test [1] is 1 to 10 nM. For the same molecule, in test [2] (Homo sapiens), the IC50 lay within 1 to 10 nM.

Turning to `COCCNC(=O)c1c(C)oc2cc(Oc3ccnc4cc(OC)ccc34)ccc12` [Example 88, N-(2-methoxyethyl)-6-[(7-methoxyquinolin-4-yl)oxy]-2-methyl-1-benzofuran-3-carboxamide], the Ki in test [1] was in the range of 1 to 10 nM. Moreover, the IC50 in test [2] (Homo sapiens) was in the range of 1 to 10 nM.

Broadly, the Ki is the dissociation constant of the complex between target and ligand, obtained from inhibition or displacement. Read a low Ki as higher affinity. The IC50 is the concentration that inhibits the measured activity by half.
